# Legend:
# [1] = system: contused spinal cord; experiment: Spinal cord contusion, post-traumatic immunization with Nogo p472, BBB hindlimb motor score; type: in vivo, SPD rats
# [2] = system: retinal ganglion cells (RGCs); experiment: Optic nerve crush injury after immunization with MOG p35-55, retrograde labeling of RGCs; type: in vivo, rat; conditions: 50 μg/animal with IFA intradermally in footpads ten days prior to crush; two weeks after injury
# Protocol: FIG. 10 is a graph illustrating inhibition of secondary degeneration after optic nerve crush injury in adult rats. See text, Example 3, for experimental details. Rats were injected intradermally through the footpads with a 21-mer peptide based on MOG amino acid residues 35-55 (MOG p35-55) (([…], chemically synthesized at the Weizmann Institute of Science, Rehovot, Israel) or PBS ten days prior to optic nerve crush injury or MOG p35-55 in the absence of crush injury. MOG p35-55 was administered with IFA. Surviving optic nerve fibers were monitored by retrograde labeling of RGCs. The number of RGCs in rats injected with PBS or MOG p35-55 was expressed as a percentage of the total number of neurons in rats injected with MOG p35-55 in the absence of crush injury.
# Rats were injected intradermally in the footpads with MOG p35-55 (50 μg/animal) and IFA, or PBS, ten days prior to optic nerve crush injury. RGCs were assessed two weeks after injury using retrograde labeling as described above. The number of RGCs in rats injected with PBS or MOG p35-55 was expressed as a percentage of the total number of neurons in rats injected with MOG p35-55 in the absence of crush injury.
# [3] = system: retinal ganglion cells (RGCs); experiment: Optic nerve crush injury after oral MBP, retrograde labeling of RGCs; type: in vivo, Lewis rats; conditions: fed antigen from ten days before mild crush injury (FIG. 14)
# Protocol: MBP (Sigma, Israel) (1 mg in 0.5 ml saline) was administered orally to adult rats by gavage using a blunt needle. MBP was administered 5 times, i.e., every third day beginning two weeks prior to optic nerve crush injury. Surviving optic nerve fibers were monitored by retrograde labeling of RGCs. The number of RGCs in treated rats was expressed as a percentage of the total number of neurons in untreated rats following the injury.
# Lewis rats were fed 1 mg MBP daily, or every other day, or 4 times a day at two-hour intervals for five consecutive days. Control animals were given PBS or the non-self antigen OVA Sigma, Israel). Ten days after the start of MBP ingestion, the right optic nerves were subjected to a calibrated mild crush injury. Two weeks later the RGCs were retrogradely labelled by application of the fluorescent lipophilic dye 4-Di-10-Asp(Molecular Probes Europe BV, Netherlands), distally to the site of injury, as described. […] Six days after dye application, the retina was detached from the eye, prepared as a flattened whole mount in 4% paraformaldehyde solution, and examined for labeled RGCs by fluorescence microscopy. RGCs were counted from three different regions in the retina. The results are expressed as normalized percentage of each retina to untreated injured animal mean of the same experiment. […]
molecule,measurement,setting,value
"p472: 18-mer peptide, residues 623-640 of rat Nogo-A (SEQ ID NO:19), emulsified in CFA (SYDSIKLEPENPPPYEEA; emulsified in CFA; listed as Rattus norvegicus)",overall functional recovery compared to control rats (PBS in CFA or PBS only),"[1]; 100 μg/rat in CFA s.c. after contusion, female and male rats, P<0.01",significantly improved
same,day from which hind limb locomotion was significantly better than PBS-treated controls,"[1]; female rats, 50 mm, boosted one week after injury",25 days
same,day after injury from which locomotor performance was significantly better than PBS+CFA-treated controls,[1]; male rats,11 days
"MOG p35-55: 21-mer peptide based on amino acids 35-55 of MOG, chemically synthesized, given with IFA (MEVGWYRSPFSRVVHLYRNGK; given with IFA; UniProt Q61885 63-83, looked up, fragment)",number of labeled RGCs compared to animals receiving PBS,[2],about 12.5 fold
"OVA: non-self antigen ovalbumin (Sigma) fed to control rats (protein, UniProt P01012 2-386, looked up) Ovalbumin: GSIGAASMEFCFDVFKELKVHHANENIFYCPIAIMSALAMVYLGAKDSTRTQINKVVRFDKLPGFGDSIEAQCGTSVNVHSSLRDILNQITKPNDVYSFSLASRLYAEERYPILPEYLQCVKELYRGGLEPINFQTAADQARELINSWVESQTNGIIRNVLQPSSVDSQTAMVLVNAIVFKGLWEKAFKDEDTQAMPFRVTEQESKPVQMMYQIGLFRVASMASEKMKILELPFASGTMSMLVLLPDEVSGLEQLESIINFEKLTEWTSSNVMEERKIKVYLPRMKMEEKYNLTSVLMAMGITDVFSSSANLSGISSAESLKISQAVHAAHAEINEAGREVVGSAEAGVDAASVSEEFRADHPFLFCIKHIATNAVLFFGRCVSP",number of surviving RGCs two weeks after optic nerve injury vs control group,[3],ns

# — patent US7560102B2, “Method for reducing neuronal degeneration so as to ameliorate the effects of injury or disease” (Yeda Research and Development Co., Ltd, priority 1998, dated 2009)
